From patent publication US9023789B2, “Amylin analogs and pharmaceutical compositions thereof” (Novo Nordisk A/S, priority 2012, dated 2015)
pEC50, pIC50: −log10 of the molar value. ≈ marks a conversion by molar mass, not a printed value. Where two headings read alike, the source gives them in different places. Numbered stars: 1 amine (or outer) side, 2 acyl side, 3 side chain; on linkers, the order of the positions; unused ones are H or OH. Bridge positions count the residues as written; N and C are the ends. Side chains are listed from the residue outwards. Peptide text beside a SMILES is read from it. * marks the point of attachment. C20 diacid = O=C(O)CCCCCCCCCCCCCCCCCCC(=O)*; γGlu = O=C(O)[C@H](CCC(=O)[*:2])N[*:1]; AEEA = NCCOCCOCC(=O)O

Columns and labels:
[1] = target: T1, rat amylin receptor (rat calcitonin receptor + rat RAMP 3) (Rattus norvegicus, UniProt P32214+Q9JJ73); assay: ASSAY (VI) binding to the rat amylin receptor; settings: for pIC50: binding to rat amylin receptor, read-out: rAmylin-R bind IC50
T1 construct: expressed in transfected cells; host or cells: BHK tk'ts 13 (transient, FuGENE 6), membranes
T1 sequence (P32214 25-479 isoform P32214-2 limits assumed): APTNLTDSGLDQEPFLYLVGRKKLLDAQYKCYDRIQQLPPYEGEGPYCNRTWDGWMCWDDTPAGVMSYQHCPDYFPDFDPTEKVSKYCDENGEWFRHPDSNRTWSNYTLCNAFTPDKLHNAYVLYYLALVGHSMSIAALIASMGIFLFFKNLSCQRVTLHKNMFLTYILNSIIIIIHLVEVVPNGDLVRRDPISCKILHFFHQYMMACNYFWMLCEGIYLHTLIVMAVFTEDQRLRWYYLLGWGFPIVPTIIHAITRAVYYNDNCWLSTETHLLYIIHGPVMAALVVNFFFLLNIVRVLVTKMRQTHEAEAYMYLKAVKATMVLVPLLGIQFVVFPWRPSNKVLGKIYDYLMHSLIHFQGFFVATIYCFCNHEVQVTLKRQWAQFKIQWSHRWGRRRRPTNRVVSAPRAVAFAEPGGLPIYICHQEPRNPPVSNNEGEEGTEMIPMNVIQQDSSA
T1 sequence (Q9JJ73 23-147 partner): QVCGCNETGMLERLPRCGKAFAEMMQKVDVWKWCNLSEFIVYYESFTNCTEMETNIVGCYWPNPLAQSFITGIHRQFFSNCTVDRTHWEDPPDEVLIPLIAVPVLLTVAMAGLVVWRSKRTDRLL
Method in brief: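 This assay measured binding to the rat amylin receptor. BHK tk′ts 13 cells were transiently transfected with the rat calcitonin receptor using FuGENE® 6 (Roche), following the manufacturer's recommendations. About 48 hours after transfection, the cells were harvested and membranes were prepared from them for the binding determination.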

rat calcitonin receptor = target: T2, rat calcitonin receptor (Rattus norvegicus, UniProt P32214); assay: ASSAY (VIII) binding to the rat calcitonin receptor; settings: Table 7, read-out: rCTR bind IC50
T2 construct: expressed in transfected cells; host or cells: BHK tk'ts 13 (transient, FuGENE 6), membranes
T2 sequence (P32214 25-479 isoform P32214-2 limits assumed): T1 sequence (P32214 25-479 isoform P32214-2 limits assumed)
Method in brief: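 Membranes were prepared from BHK tk′ts 13 cells transiently transfected with rat calcitonin receptor. Cells were grown in DMEM with 10% FBS and harvested approximately 48 hours after transfection.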

[2] = target: T3, human amylin 3(a) receptor (human calcitonin receptor + RAMP-3) in BHK570 cells (Homo sapiens, UniProt O60896+P30988); assay: ASSAY (II)a functional assay, human amylin receptor (CRE luciferase); assay type: cell-based
T3 construct: expressed in transfected cells
Method in brief: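 BHK CRE-luc cells, calcitonin (a) receptor ± RAMP-3 (amylin 3(a)); overnight seeding, 37° C/5% CO2. 3 h ligand exposure, DMEM/10% FBS/10 mM Hepes pH 7.4. LucLite 30 min RT; luminescence (SPC).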

[3] = target: T4, human amylin receptor (membranes from Amylin 3(a)/CRE-luc cells) (Homo sapiens, UniProt O60896+P30988); assay: ASSAY (V) binding to the human amylin receptor (SPA, 125I-rat amylin);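 also: competition binding of cell membranes (35 ng/µL) mixed with SPA beads in 384-well plates at 40 µL total volume, read by scintillation counting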
T4 construct: expressed in transfected cells
T4 sequence (P30988 25-474): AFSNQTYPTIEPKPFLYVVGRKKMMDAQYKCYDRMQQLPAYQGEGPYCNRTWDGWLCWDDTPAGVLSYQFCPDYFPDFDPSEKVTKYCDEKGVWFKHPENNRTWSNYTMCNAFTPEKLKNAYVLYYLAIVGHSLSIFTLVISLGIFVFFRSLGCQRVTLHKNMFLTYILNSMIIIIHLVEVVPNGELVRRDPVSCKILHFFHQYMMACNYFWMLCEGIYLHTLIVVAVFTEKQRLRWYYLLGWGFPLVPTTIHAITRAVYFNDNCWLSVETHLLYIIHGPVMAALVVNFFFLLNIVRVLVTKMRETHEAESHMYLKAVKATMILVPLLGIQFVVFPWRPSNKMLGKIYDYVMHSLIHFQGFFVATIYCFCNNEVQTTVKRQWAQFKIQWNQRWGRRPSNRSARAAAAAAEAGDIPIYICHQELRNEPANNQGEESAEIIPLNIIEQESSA
T4 sequence (O60896 24-148 partner): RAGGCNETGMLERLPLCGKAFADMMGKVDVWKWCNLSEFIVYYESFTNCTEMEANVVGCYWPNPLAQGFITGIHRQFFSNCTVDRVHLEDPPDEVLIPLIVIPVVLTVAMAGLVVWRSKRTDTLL

[4] = ASSAY (IV) determination of solubility; assay type: physicochemical; settings: for Solubility pH 6.5 Concentration: pH 6.5 (Table 9a); for Solubility pH 7.0 Concentration: pH 7.0 (Table 9a)
Method in brief: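 Polypeptide in water at […] mixed 1:1 with 100 mM buffers of pH 3.0-8.0 (glycylglycine pH 3-5, bistrispropane pH 6-8). Held 18 h at room temperature, then centrifuged; concentration remaining in solution measured by UPLC.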

[5] = Table 7, rat binding selectivity, rCTR IC50 / rAmylin-R IC50
[6] = Table 7a (preferred compounds), rat binding selectivity, rCTR IC50 / rAmylin-R IC50
[7] = ratio of rCTR bind IC50 to rAmylin-R bind IC50
[8] = hCTR funct. EC50 divided by hAmylin-R funct. EC50
[9] = hCTR funct. EC50 over hAmylin-R funct. EC50
[10] = human functional selectivity: hCTR funct. EC50 / hAmylin-R funct. EC50
[11] = Table 5, selectivity, hCTR bind IC50 / hAmylin-R bind IC50
[12] = Table 5a, selectivity, hCTR bind IC50 / hAmylin-R bind IC50
[13] = Table 5b, selectivity, hCTR bind IC50 / hAmylin-R bind IC50
[14] = Table 5c, selectivity, hCTR bind IC50 / hAmylin-R bind IC50
[15] = Table 7, human binding selectivity, included for comparison
[16] = Table 7a (preferred compounds), human binding selectivity, included for comparison
[17] = ratio of human calcitonin receptor binding IC50 to human amylin receptor binding IC50
[18] = bistrispropane buffer, pH 6.5, read-out: Solubility pH 6.5 Concentration
[19] = bistrispropane buffer, pH 7.5, read-out: Solubility pH 7.5 Concentration
[20] = bistrispropane buffer, pH 6.0, read-out: Solubility pH 6.0 Concentration
[21] = bistrispropane buffer, pH 7.0, read-out: Solubility pH 7.0 Concentration
[22] = bistrispropane buffer, pH 8.0, read-out: Solubility pH 8.0 Concentration
[23] = glycylglycine buffer, pH 3.0, read-out: Solubility pH 3.0 Concentration
[24] = glycylglycine buffer, pH 4.0, read-out: Solubility pH 4.0 Concentration
[25] = glycylglycine buffer, pH 5.0, read-out: Solubility pH 5.0 Concentration

## CC[C@H](C)[C@H](NC(=O)[C@H](C)NC(=O)CNC(=O)[C@H](Cc1ccccc1)NC(=O)[C@H](CC(N)=O)NC(=O)[C@@H]1CCCN1C(=O)[C@H](CO)NC(=O)[C@H](CO)NC(=O)[C@H](Cc1c[nH]cn1)NC(=O)[C@H](CCCNC(=N)N)NC(=O)[C@H](CC(C)C)NC(=O)[C@H](Cc1ccccc1)NC(=O)[C@H](Cc1c[nH]cn1)NC(=O)[C@H](C)NC(=O)[C@H](CC(C)C)NC(=O)[C@H](CCCNC(=N)N)NC(=O)[C@H](CCC(N)=O)NC(=O)[C@@H](NC(=O)[C@H](C)NC(=O)[C@@H]1CSSC[C@H](NC(=O)[C@@H](N)CCCCNC(=O)CC[C@H](NC(=O)CCCCCCCCCCCCCCCCCCC(=O)O)C(=O)O)C(=O)N[C@@H](CC(N)=O)C(=O)N[C@@H]([C@@H](C)O)C(=O)N[C@@H](C)C(=O)N[C@@H]([C@@H](C)O)C(=O)N1)[C@@H](C)O)C(=O)N1CCC[C@H]1C(=O)N[C@@H](CO)C(=O)N[C@@H](CO)C(=O)N[C@H](C(=O)N[C@@H](CC(N)=O)C(=O)N[C@H](C(=O)NCC(=O)N[C@@H](CO)C(=O)N[C@@H](Cc1c[nH]cn1)C(=O)N[C@H](C(=O)N[C@@H](Cc1ccc(O)cc1)C(N)=O)[C@@H](C)O)C(C)C)[C@@H](C)O [Example 66] (H-K([γGlu-C20 diacid])CNTATCATQRLAHFLRHSSPNFGAIPSSTNVGSHTY-NH2; disulfide 2-7; N-terminus assumed)
[1]; Table 7
  pIC50: 9.24
[1]; [5]
  Ratio rCT/rAmylin binding: 35.8
[1]; [6]
  Ratio rCT/rAmylin binding: 35.8
[1]; [7]
  Ratio rCT/rAmylin binding: 35.8
Rat calcitonin receptor
  pIC50: 7.68
[2]; [8]
  Ratio hCT/hAmylin funct.: 20.1
[2]; [9]
  Ratio hCT/hAmylin funct.: 20.1
[2]; human amylin receptor functional potency, assay (II), read-out: hAmylin-R funct. EC50
  pEC50: 10.57
[2]; [10]
  Ratio hCT/hAmylin funct.: 20.1
[3]; Table 4, read-out: hAmylin-R bind IC50
  pIC50: 9.40
[3]; [11]
  Ratio hCT/hAmylin binding: 45.5
[3]; [12]
  Ratio hCT/hAmylin binding: 45.5
[3]; [13]
  Ratio hCT/hAmylin binding: 45.5
[3]; [14]
  Ratio hCT/hAmylin binding: 45.5
[3]; [15]
  Ratio hCT/hAmylin binding: 45.5
[3]; [16]
  Ratio hCT/hAmylin binding: 45.5
[3]; [17]
  Ratio hCT/hAmylin binding: 45.5
[4]; [18]
  solubility at 18 h: ≥ 200 µM
[4]; [19]
  solubility at 18 h: 131 µM (≈ 580 µg/mL)
[4]; [20]
  solubility at 18 h: ≥ 200 µM
[4]; [21]
  solubility at 18 h: ≥ 200 µM
[4]; [22]
  solubility at 18 h: 52 µM (≈ 230 µg/mL)
[4]; [23]
  solubility at 18 h: ≥ 200 µM
[4]; [24]
  solubility at 18 h: ≥ 200 µM
[4]; [25]
  solubility at 18 h: ≥ 200 µM
[4]
  Solubility pH 6.5 Concentration: ≧200 μM
  Solubility pH 7.0 Concentration: ≧200 μM

## CC[C@H](C)[C@H](NC(=O)[C@H](C)NC(=O)CNC(=O)[C@H](Cc1ccccc1)NC(=O)[C@H](CC(N)=O)NC(=O)[C@@H]1CCCN1C(=O)[C@H](CO)NC(=O)[C@H](CO)NC(=O)[C@H](Cc1c[nH]cn1)NC(=O)[C@H](CCCNC(=N)N)NC(=O)[C@H](CC(C)C)NC(=O)[C@H](Cc1ccccc1)NC(=O)[C@H](CC(N)=O)NC(=O)[C@H](C)NC(=O)[C@H](CC(C)C)NC(=O)[C@H](CCCNC(=N)N)NC(=O)[C@H](CCC(N)=O)NC(=O)[C@@H](NC(=O)[C@H](C)NC(=O)[C@@H]1CSSC[C@H](NC(=O)[C@@H](N)CCCCNC(=O)COCCOCCNC(=O)CC[C@H](NC(=O)CCCCCCCCCCCCCCCCCCC(=O)O)C(=O)O)C(=O)N[C@@H](CC(N)=O)C(=O)N[C@@H]([C@@H](C)O)C(=O)N[C@@H](C)C(=O)N[C@@H]([C@@H](C)O)C(=O)N1)[C@@H](C)O)C(=O)N1CCC[C@H]1C(=O)N[C@@H](CO)C(=O)N[C@@H](CO)C(=O)N[C@H](C(=O)N[C@@H](CC(N)=O)C(=O)N[C@H](C(=O)NCC(=O)N1CCC[C@H]1C(=O)N[C@@H](Cc1c[nH]cn1)C(=O)N[C@H](C(=O)N[C@@H](Cc1ccc(O)cc1)C(N)=O)[C@@H](C)O)C(C)C)[C@@H](C)O [Example 58] (H-K([AEEA-γGlu-C20 diacid])CNTATCATQRLANFLRHSSPNFGAIPSSTNVGPHTY-NH2; disulfide 2-7)
[1]; Table 7
  pIC50: 9.87
[1]; [5]
  Ratio rCT/rAmylin binding: 76.6
[1]; [6]
  Ratio rCT/rAmylin binding: 76.6
[1]; [7]
  Ratio rCT/rAmylin binding: 76.6
Rat calcitonin receptor
  pIC50: 7.99
[2]; [8]
  Ratio hCT/hAmylin funct.: 21.9
[2]; [9]
  Ratio hCT/hAmylin funct.: 21.9
[2]; [10]
  Ratio hCT/hAmylin funct.: 21.9
[3]; [11]
  Ratio hCT/hAmylin binding: 109.4
[3]; [12]
  Ratio hCT/hAmylin binding: 109.4
[3]; [13]
  Ratio hCT/hAmylin binding: 109.4
[3]; [14]
  Ratio hCT/hAmylin binding: 109.4
[3]; [15]
  Ratio hCT/hAmylin binding: 109.4
[3]; [16]
  Ratio hCT/hAmylin binding: 109.4
[3]; [17]
  Ratio hCT/hAmylin binding: 109.4
[4]; [18]
  solubility at 18 h: ≥ 200 µM
[4]; [19]
  solubility at 18 h: 96 µM (≈ 438 µg/mL)
[4]; [20]
  solubility at 18 h: ≥ 200 µM
[4]; [21]
  solubility at 18 h: ≥ 200 µM
[4]; [22]
  solubility at 18 h: 48 µM (≈ 219 µg/mL)
[4]; [23]
  solubility at 18 h: ≥ 200 µM
[4]; [24]
  solubility at 18 h: ≥ 200 µM
[4]; [25]
  solubility at 18 h: ≥ 200 µM
[4]
  Solubility pH 6.5 Concentration: ≧200 μM
  Solubility pH 7.0 Concentration: ≧200 μM
